Test results: patent US9187426B2, “Organic compounds” (Novartis AG, priority 2008, dated 2015)

Row | melting point [°C] | SMILES
1 | 151 to 155 | O=C(Nc1cc(-c2nnc(-c3ccccc3)o2)ccn1)c1ccccc1 [Example 11, N-(4-(5-phenyl-1,3,4-oxadiazol-2-yl)pyridin-2-yl)benzamide]
2 | 182 to 183 | O=C(NCc1ccc(F)c(F)c1)c1ccnc(N2CCN(Cc3ccc(F)cc3)C2=O)c1 [Example 15.14, N-(3,4-difluorobenzyl)-2-(3-(4-fluorobenzyl)-2-oxoimidazolidin-1-yl)isonicotinamide]
3 | 150 to 152 | Cc1cc(CNC(=O)c2ccnc(N3CCN(Cc4ccc(F)cc4)C3=O)c2)nn1C [Example 14.11, N-((1,5-dimethyl-1H-pyrazol-3-yl)methyl)-2-(3-(4-fluorobenzyl)-2-oxoimidazolidin-1-yl)isonicotinamide]
4 | 145 to 146 | O=C(Nc1cc(-c2nc3ccccc3[nH]2)ccn1)c1ccccc1 [Example 4, N-(4-(1H-benzo[d]imidazol-2-yl)pyridin-2-yl)benzamide]
5 | 136 to 138 | Cc1nnc(CNC(=O)c2ccnc(N3CCN(Cc4ccc(F)cc4)C3=O)c2)o1 [Example 26.1, 2-(3-(4-Fluorobenzyl)-2-oxoimidazolidin-1-yl)-N-((5-methyl-1,3,4-oxadiazol-2-yl)methyl)isonicotinamide]
6 | 171 to 173 | O=C(NCc1ccc(F)cc1)c1ccnc(N2CCN(Cc3ccc(F)cc3F)C2=O)c1 [Example 15.22, 2-(3-(2,4-difluorobenzyl)-2-oxoimidazolidin-1-yl)-N-(4-fluorobenzyl)isonicotinamide]
7 | 173 to 175 | O=C(NCc1ccccc1)c1ccnc(-n2cnn(Cc3ccc(F)cc3)c2=O)c1 [Example 16, N-benzyl-2-(1-(4-fluorobenzyl)-5-oxo-1H-1,2,4-triazol-4(5H)-yl)isonicotinamide]
8 | 135 to 137 | O=C(NCC1CC1)c1ccnc(N2CCN(Cc3ccc(F)cc3)C2=O)c1 [Example 15.5, N-(cyclopropylmethyl)-2-(3-(4-fluorobenzyl)-2-oxoimidazolidin-1-yl)isonicotinamide]
9 | 160 to 162 | O=C(NCc1ccccc1)c1ccnc(NC(=O)c2cccs2)c1 [Example 6.3, N-benzyl-2-(thiophene-2-carboxamido)isonicotinamide]
10 | 170 to 172 | O=C(NCc1nccs1)c1ccnc(-n2cnn(Cc3ccc(F)cc3)c2=O)c1 [Example 26.21, 2-(1-(4-Fluorobenzyl)-5-oxo-1H-1,2,4-triazol-4(5H)-yl)-N-(thiazol-2-ylmethyl)-isonicotinamide]
11 | 132 to 133 | COc1cc(C(=O)NCc2ccccc2)cc(NC(=O)c2ccccc2)n1 [Example 6.17, 2-benzamido-N-benzyl-6-methoxyisonicotinamide]
12 | 209 to 211 | O=C(NCc1cnc(Cl)s1)c1ccnc(N2CCN(Cc3ccc(C(F)(F)F)cc3)C2=O)c1 [Example 26.20, N-((2-Chlorothiazol-5-yl)methyl)-2-(2-oxo-3-(4-(trifluoromethyl)-benzyl)imidazolidin-1-yl)isonicotinamide]
13 | 205 to 207 | O=C(NCc1ccncc1)c1ccnc(N2CCN(Cc3ccc(F)cc3)C2=O)c1 [Example 15.2, 2-(3-(4-fluorobenzyl)-2-oxoimidazolidin-1-yl)-N-(pyridin-4-ylmethyl)isonicotinamide]
14 | 148 to 150 | O=C(NCc1ncco1)c1ccnc(N2CCN(Cc3ccc(F)cc3)C2=O)c1 [Example 14.4, 2-(3-(4-fluorobenzyl)-2-oxoimidazolidin-1-yl)-N-(oxazol-2-ylmethyl)isonicotinamide]
15 | 127 to 129 | O=C(NCc1ccon1)c1ccnc(N2CCN(Cc3ccc(F)cc3)C2=O)c1 [Example 14.14, 2-(3-(4-fluorobenzyl)-2-oxoimidazolidin-1-yl)-N-(isoxazol-3-ylmethyl)isonicotinamide]
16 | 97 to 99 | O=C(NCc1nccs1)c1ccnc(N2CCN(Cc3ccc(OC(F)(F)F)cc3)C2=O)c1 [Example 26.17, 2-(2-Oxo-3-(4-(trifluoromethoxy)benzyl)imidazolidin-1-yl)-N-(thiazol-2-ylmethyl)-isonicotinamide]
17 | 55 to 60 | O=C(NCc1ccccc1)c1ccnc(N2CCC(c3ccccc3)CC2=O)c1 (centres unmarked) [Example 18, 2-oxo-4-phenyl-3,4,5,6-tetrahydro-2H-[1,2′]bipyridinyl-4′-carboxylic acid benzylamide]
18 | 165 to 167 | O=C(NCc1ccc(F)cc1)c1ccnc(N2CCN(Cc3ccc(F)c(F)c3)C2=O)c1 [Example 15.20, 2-(3-(3,4-difluorobenzyl)-2-oxoimidazolidin-1-yl)-N-(4-fluorobenzyl)isonicotinamide]
19 | 167 to 169 | O=C(NCc1ccccc1)c1ccnc(N2CCN(Cc3ccc(F)cc3)C2=O)c1 [Example 15, N-benzyl-2-(3-(4-fluorobenzyl)-2-oxoimidazolidin-1-yl)isonicotinamide]
20 | 137 to 139 | O=C(NCc1ccccc1)c1ccnc(-n2cnn(CC3CC3)c2=O)c1 [Example 15.13, N-benzyl-2-(1-(cyclopropylmethyl)-5-oxo-1H-1,2,4-triazol-4(5H)-yl)isonicotinamide]
21 | 123 to 125 | O=C(NCc1nccs1)c1ccnc(N2CCN(Cc3ccc(F)cc3)C2=O)c1 [Example 14.3, 2-(3-(4-fluorobenzyl)-2-oxoimidazolidin-1-yl)-N-(thiazol-2-ylmethyl)isonicotinamide]
22 | 126 to 128 | O=C(NCc1ccccc1)c1ccnc(NC(=O)c2cccc(C(F)(F)F)c2)c1 [Example 6.15, N-benzyl-2-(3-(trifluoromethyl)benzamido)isonicotinamide]
23 | 103 to 105 | CC(C)Cc1c[nH]c(-c2ccnc(NC(=O)c3ccccc3)c2)n1 [Example 10.3, N-(4-(4-isobutyl-1H-imidazol-2-yl)pyridin-2-yl)benzamide]
24 | 165 to 166 | Cn1cc(CNC(=O)c2ccnc(N3CCN(Cc4ccc(F)cc4)C3=O)c2)cn1 [Example 14.8, 2-(3-(4-fluorobenzyl)-2-oxoimidazolidin-1-yl)-N-((1-methyl-1H-pyrazol-4-yl)methyl)isonicotinamide]
25 | 168 to 170 | O=C(NCc1ccc(F)cc1)c1ccnc(N2CCN(Cc3ccc(C(F)(F)F)cc3)C2=O)c1 [Example 26.2, N-(4-Fluorobenzyl)-2-(2-oxo-3-(4-(trifluoromethyl)benzyl)imidazolidin-1-yl)isonicotinamide]
26 | 95 to 97 | CCCc1c[nH]c(-c2ccnc(NC(=O)c3ccccc3)c2)n1 [Example 10.1, N-(4-(4-propyl-1H-imidazol-2-yl)pyridin-2-yl)benzamide]
27 | 163 to 165 | Cc1nc(CNC(=O)c2ccnc(N3CCN(Cc4ccc(F)cc4)C3=O)c2)no1 [Example 26.7, 2-(3-(4-Fluorobenzyl)-2-oxoimidazolidin-1-yl)-N-((5-methyl-1,2,4-oxadiazol-3-yl)methyl)-isonicotinamide]
28 | 123 to 125 | O=C(NCCC1CC1)c1ccnc(N2CCN(Cc3ccc(F)cc3)C2=O)c1 [Example 15.7, N-(2-cyclopropylethyl)-2-(3-(4-fluorobenzyl)-2-oxoimidazolidin-1-yl)isonicotinamide]
29 | 141 to 142 | O=C(NCc1ccc(F)cc1)c1ccnc(N2CCN(Cc3ccccn3)C2=O)c1 [Example 15.15, N-(4-fluorobenzyl)-2-(2-oxo-3-(pyridin-2-ylmethyl)imidazolidin-1-yl)isonicotinamide]
